Counter-ions that a name gives are not always drawn.
Columns and labels:
[1] = Blood circulation of drug-loaded vesicles; conditions: nude Balb/C, mouse, whole blood, intravenous, 10 mg/kg
Experimental: The blood samples (approximately 10 μL) were collected at time points of 0, 0.25, 0.5, 1, 2, 4, 8, 12 and 24 h. The exact weight of the blood was determined through weighing by difference method, then 100 μL Triton (concentration: 1%) and 500 μL DMF (which contained 20 mM DTT, 1 M HCl) were added. The sample was subjected to extraction, followed by centrifugation (20,000 rpm, 20 min).

[2] = Maximum tolerated dose (MTD); conditions: nude Balb/C, mouse, in vivo
Description: Nude Balb/C mice with body weight of about 18-20 g, aged 4-6 weeks were used. […] The standard for MTD was non accidental death in mice or weight less than 15% in mice.

B16 tumor = assay: Antitumor effect and weight change in mice bearing B16 tumor; assay type: in vivo, Nude Balb/C mice
Description: After 2 weeks, when the size of the tumors was 30-50 mm^3, the experiment began. […] From Day 0 to 18, the body weight of the mice in each group was weighed every two days. The size of the tumor was precisely measured with Vernier scale, where the method for calculating the volume of tumors was: V=(L×W×H)/2, (where L was the length of the tumor, W was the width of the tumor, H was the thickness of the tumor). The survival of the mice was observed continuously till the 45th day.

tumor site = assay: CT imaging of nano-vesicles in mice (Example 20); assay type: in vivo; conditions: tail vein, circulation after 40 minutes
Experimental: By the changing CT value in FIG. 10 can be seen, after a 4 hour cycle, CT change of cRGD20/CLPs was the highest, followed by CLPs, and lowest in the control group, after 7 hours of circulation, CT value of cRGD20/CLPs is 2 times and 10 times than the other two groups.

contrast signal in the bladder (tumor site) | Compound | half-life [1] [min] | MTD at 10 days [2] [mg/kg] | tumor growth (B16 tumor; DOX.HCl 10 mg/kg at 0, 4, 8, 12 day, 19-day treatment) | body weight decrease (B16 tumor; in 7 days, DOX.HCl 10 mg/kg) [%]
 | COc1cccc2c1C(=O)c1c(O)c3c(c(O)c1C2=O)C[C@@](O)(C(=O)CO)C[C@@H]3O[C@H]1C[C@H](N)[C@H](O)[C@H](C)O1 [DOX.HCl, doxorubicin hydrochloride] | 7.8 | < 10 | may also inhibit tumor expansion | 20
contrast strong signal | CC(=O)N(CC(O)CO)c1c(I)c(C(=O)NCC(O)CO)c(I)c(C(=O)NCC(O)CO)c1I (centres unmarked) [iohexol] |  |  |  | 

Reference: patent US10336720B2, “Cyclic carbonate monomer containing double iodine, biodegradable polymer prepared thereby and use” (SOOCHOW UNIVERSITY, priority 2015, dated 2019)
